Assay results taken from patent US8853246B2 (Dow AgroSciences LLC, priority 2009, dated 2014).
Like-named read-outs stand apart in the source and are kept apart here.

Key:
[1] = system: Sweetpotato Whitefly-Crawler (Bemisia Tabaci); experiment: Insecticidal test for sweetpotato whitefly-crawler in foliar spray assay (col. BEMITA); type: in vivo; conditions: Bemisia tabaci, read-out: BEMITA 200 ppm (Corrected % Control, rating)
Outline: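 Percent control, Abbott-corrected against diluent-sprayed plants, from microscope counts of live nymphs 8-9 days after treatment. Test solution at 200 ppm in 0.025% aqueous Tween 20 applied to both leaf sides of egg-infested cotton after a 5-6 day hatch period (82° F, 50% RH).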

[2] = system: Green Peach Aphid (Myzus Persicae); experiment: Insecticidal test for green peach aphid in foliar spray assay (col. MYZUPE); type: in vivo; conditions: Myzus persicae, 72 h, read-out: MYZUPE 200 ppm (Corrected % Control, rating)
Outline: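 Corrected % control derives from microscope counts of live aphids per plant, treated against diluent-only checks, 3 days after foliar spraying at ~25 °C and 40% RH. Test solution was 200 ppm in 0.025% aqueous Tween 20, applied to both leaf sides of infested cabbage seedlings, four pots each.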

[3] = system: Cotton Aphid (Aphis Gossypii); experiment: Insecticidal test for cotton aphid in foliar spray assay (col. APHIGO); type: in vivo; conditions: Aphis gossypii, 72 h, read-out: APHIGO 200 ppm (Corrected % Control, rating)
Description: The compounds were tested against cotton aphid, green peach aphid, and sweet potato whitefly using procedures described in the following examples and reported in Table 2.
In each case of Table 2, the rating scale is as follows at 200 ppm.
Insecticidal Test for Cotton Aphid (Aphis Gossypii) in Foliar Spray Assay
Squash or cotton seedlings with fully expanded cotyledon leaves were trimmed to one cotyledon per plant and infested with cotton aphid (wingless adult and nymph) one day prior to chemical application. Each plant was examined before chemical application to ensure uniform infestation (ca. 30-70 aphids per plant). Compounds (2 mg) were dissolved in 2 mL of acetone/methanol (1:1) solvent, forming stock solutions of 1000 ppm. The stock solutions were diluted 5× with 0.025% Tween 20 in H2O to obtain a solution at 200 ppm. A hand-held Devilbiss aspirator type sprayer was used to apply the spray solutions until runoff to both sides of the squash cotyledon leaves. Four plants (4 replications) were used for each concentration of each compound. Reference plants (solvent check) were sprayed with the diluent only. Treated plants were held in a holding room for three days at approximately 25° C. and 40% RH before the number of live aphids on each plant was recorded. Insecticidal activity was measured by Corrected % Control using Abbott's correction formula and presented in Table 2 (see col. “APHIGO”): Corrected % Control=100*(X−Y)/X • where X=No. of live aphids on solvent check plants • Y=No. of live aphids on treated plants

Compound | pest or weed control at 200 ppm ([1]; sweetpotato whitefly-crawler) [%] | pest or weed control at 200 ppm ([2]; green peach aphid) [%] | pest or weed control at 200 ppm [3] [%] | pest or weed control at 200 ppm ([1]; Abbott's correction formula) [%] | melting point [°C] | pest or weed control at 200 ppm ([2]; Abbott's correction formula) [%]
CSCCC(=O)N(C)c1cnc(-c2cccnc2)s1 [Compound 19, N-methyl-3-methylsulfanyl-N-(2-pyridin-3-yl-thiazol-5-yl)-propionamide] | < 80 | 80 to 100 | < 80 |  |  | 
CCN(C(=O)C(C)CSC)c1sc(-c2cccnc2)nc1C (stereo not drawn) [Compound 210] | 80 to 100 | 80 to 100 | 80 to 100 |  |  | 
CSCC(C)C(=O)N(C)c1sc(-c2cccnc2)nc1Cl (stereo not drawn) [Compound 227, N-(4-chloro-2-pyridin-3-yl-thiazol-5-yl)-2,N-dimethyl-3-methylsulfanyl-propionamide] | 80 to 100 | 80 to 100 | 80 to 100 |  |  | 
CC(C[S+](C)[O-])C(=O)N(C)c1sc(-c2cccnc2)nc1Cl (stereo not drawn) [Compound 230] | 80 to 100 | 80 to 100 | 80 to 100 |  |  | 
CCN(C(=O)C(C)C)c1sc(-c2cccnc2)nc1C [Compound 233] | 80 to 100 | 80 to 100 | 80 to 100 |  |  | 
CCN(C(=O)C(C)C[S+](C)[O-])c1sc(-c2cccnc2)nc1C (stereo not drawn) [Compound 234] | 80 to 100 | 80 to 100 | 80 to 100 |  |  | 
CC(C)(C)OC(=O)Nc1sc(-c2cccnc2)nc1F [Compound 478] |  |  |  | < 80 | 184 to 186 | 80 to 100
CC(C)(C)OC(=O)Nc1sc(-c2cncc(F)c2)nc1I [Compound 481, tert-butyl 2-(5-fluoropyridin-3-yl)-4-iodothiazol-5-yl carbamate] |  |  |  | < 80 | 148 to 149 | < 80
CSC(C)CC(=O)Nc1sc(-c2cccnc2)nc1Cl (stereo not drawn) [Compound 487] |  |  |  | 80 to 100 | 120 to 125 | 80 to 100
CSC(C)(C)CC(=O)Nc1sc(-c2cccnc2)nc1Cl [Compound 488] |  |  |  | 80 to 100 | 113 to 115 | 80 to 100
CCCC(C)(C)OC(=O)N(C)c1sc(-c2cccnc2)nc1C [Compound 491] |  |  |  | 80 to 100 | 65 to 69 | 80 to 100
CSCCC(=O)N(C(=O)OC(C)(C)C)c1sc(-c2cncc(F)c2)nc1C#N [Compound 494] |  |  |  | < 80 | 105 to 106 | < 80
CN(C(=O)OC(C)(C)C)c1sc(-c2cncc(F)c2)nc1I [Compound 497] |  |  |  | 80 to 100 | 70 to 71 | 80 to 100
C=CC(=O)Nc1sc(-c2cncc(F)c2)nc1C#N [Compound 502] |  |  |  | < 80 | 231 to 232 | < 80
CSCCC(=O)N(C)c1sc(-c2cncc(F)c2)nc1C#N [Compound 503] |  |  |  | < 80 | 97 to 98 | < 80
CN(C(=O)CC[S+](C)[O-])c1sc(-c2cncnc2)nc1Cl (stereo not drawn) [Compound 510] |  |  |  | 80 to 100 | 137 to 140 | 80 to 100
CSCCC(=O)N(C)c1sc(-c2cnccc2F)nc1Cl [Compound 515] |  |  |  | < 80 | 74 to 76 | < 80

Compound | pest or weed control at 200 ppm ([1]; sweetpotato whitefly-crawler) [%] | pest or weed control at 200 ppm ([2]; green peach aphid) [%] | pest or weed control at 200 ppm [3] [%] | pest or weed control at 200 ppm ([1]; Abbott's correction formula) [%] | melting point [°C] | pest or weed control at 200 ppm ([2]; Abbott's correction formula) [%]
Cc1nc(-c2cncc(F)c2)sc1N(C)C(=S)NC1CC1 [Compound 519, 3-cyclopropyl-1-[2-(5-fluoro-pyridin-3-yl)-4-methyl-thiazol-5-yl]-1-methyl-thiourea] |  |  |  | < 80 | 117 to 119 | 80 to 100
C/C=C/C(=O)N(C)c1sc(-c2cccnc2)nc1Br [Compound 526] |  |  |  | 80 to 100 | 121 to 125 | 80 to 100
CCN(C(=O)c1cscn1)c1sc(-c2cccnc2)nc1Cl [Compound 529] |  |  |  | < 80 | 82 to 86 | 80 to 100
CCN(C(=O)C1(C)CC1(Cl)Cl)c1sc(-c2cccnc2)nc1Cl (stereo not drawn) [Compound 536] |  |  |  | < 80 | 144 to 146 | < 80
CCN(C(=O)C(C)Cn1nc(C)nc1C)c1sc(-c2cccnc2)nc1Cl (stereo not drawn) [Compound 541] |  |  |  | < 80 | 102 to 105 | 80 to 100
CCN(C(=O)c1cn(C)nc1C(F)(F)F)c1sc(-c2cccnc2)nc1Cl [Compound 547] |  |  |  | 80 to 100 | 110 to 111 | 80 to 100
CCN(C(=O)c1sc(C)nc1C(F)(F)F)c1sc(-c2cccnc2)nc1Cl [Compound 548] |  |  |  | 80 to 100 | 102 to 103 | 80 to 100
COc1ncc(-c2nc(Cl)c(N(C)C(=O)CCSC)s2)cc1F [Compound 551] |  |  |  | < 80 | 92 to 94 | < 80
COc1ncc(-c2nc(Cl)c(N(C)C(=O)CC[S+](C)[O-])s2)cc1F (stereo not drawn) [Compound 558] |  |  |  | < 80 | 132 to 135 | < 80
CCN(C(=O)c1cc(Cl)cc(Cl)c1)c1sc(-c2cccnc2)nc1Cl [Compound 564] |  |  |  | < 80 | 172 to 174 | < 80
CSCCN(C(=O)OC(C)(C)C)c1sc(-c2cccnc2)nc1C [Compound 567] |  |  |  | < 80 | 63 to 68 | 80 to 100
CCN(C(=O)c1cocn1)c1sc(-c2cccnc2)nc1Cl [Compound 570] |  |  |  | < 80 | 118 to 120 | 80 to 100
CCN(C(=O)c1cnn(C)c1C(F)(F)F)c1sc(-c2cccnc2)nc1Cl [Compound 577] |  |  |  | < 80 | 115 to 117 | 80 to 100
Cc1nc(-c2cncc(F)c2)sc1N(C)C(=O)C1CCCN(C(=O)OC(C)(C)C)C1 (stereo not drawn) [Compound 580] |  |  |  | 80 to 100 | 51 to 60 | < 80
Cc1nc(-c2cncc(F)c2)sc1N(C)C(=O)C1CCCN(C(=S)NC2CC2)C1 (stereo not drawn) [Compound 585] |  |  |  | < 80 | 190 to 192 | 80 to 100
CSCCC(=O)Nc1sc(-c2cccnc2)nc1SC [Compound 589, 3-(methylthio)-N-(4-(methylthio)-2-(pyridin-3-yl)thiazol-5-yl)propanamide] |  |  |  | < 80 | 72 to 74 | < 80
